Experimental data reported in patent US20180305292A1, “DERIVATIVES OF NONSTEROIDAL ANTI-INFLAMMATORY DRUGS” (priority 2015, published 2018).

Assay: Metabolic stability in minipig intestinal fluid, quantification of released licofelone by HPLC/UV
Assay type: in vitro ADME, Gottingen SPF minipig
Conditions: incubation in diluted minipig intestinal fluid
Experimental: a) Preparation and Storage of Minipig Intestinal Fluid (IF)
Intestinal tissue/fluid and enterocyte samples were taken from a 10 month old, female Gottingen SPF minipig. The body weight was 21 kg. The minipig was fasted for approximately 28 hours before sampling of intestinal fluid/tissues and enterocytes. On the day of sampling, the minipig was weighed and anaesthetised. The animal was killed by exsanguination before sampling of intestinal fluid. An intestinal segment was ligated at both ends before removal. The isolated tissue was placed in isotonic saline and opened by a longitudinal cut for sampling of intestinal fluid.
The intestinal tissue from each segment was transferred into a Centrifuge Tube, immersed in 10 ml 50 mM phosphate buffer, pH 6.8 and frozen at −70° C.
b) Incubation Experiments with Minipig Intestinal Fluid (without FaSSIF) […]
c) Quantification of Licofelone by HPLC/UV
A set of six reference solutions (solvent: 1 vol IF and 4 vol 2% bovine serum albumin in FaSSIF pH 6.5) with licofelone concentrations between 38.0 and 0.19 μg/ml and the solvent without licofelone were analyzed in duplicate. The obtained concentration/peak area data pairs were subjected to linear regression analysis and the resulting calibration curve (r^2=0.9999) was used for quantification of licofelone in incubation experiments.

COC(=O)/C=C/C(=O)OCCOCCOCCOCCOC(=O)Cc1c(-c2ccc(Cl)cc2)c(-c2ccccc2)c2n1CC(C)(C)C2 [Example 8, (E)-But-2-enedioic acid 2-{2-[2-(2-{2-[2-(4-chloro-phenyl)-6,6-dimethyl-1-phenyl-6,7-dihydro-5H-pyrrolizin-3-yl]-acetoxy}-ethoxy)-ethoxy]-ethoxy}-ethyl ester methyl ester]
Cleavage of the ester bond, release of licofelone and monomethylfumarate: unexpected smooth cleavage of the ester bond
